Measured values published in patent publication US20130197073A1, “HYPOCHOLESTEROLEMIC, ANTI-INFLAMMATORY AND ANTIEPILEPTIC NEUROPROTECTIVE COMPOUND” (NEURON BIOPHARMA, S.A., priority 2010, published 2013).

Experiments:
caspase 3/7 = assay: Inhibition of activation of caspase 3/7 in camptothecin cell model of apoptosis; format: cell-based, human; conditions: Homo sapiens, 50 μM CPT 6 hours, read-out: inhibition of caspase 3/7 with respect to camptothecin
Method: The assay was performed on human neuroblastoma SK-N-MC cells in culture, maintained as described in section 2.1.
The induction of apoptosis on the cells in culture was performed with camptothecin (CPT), which triggers the activation of cell apoptosis. Apoptosis was quantified by means of the measurement of the activation of effector caspases, caspase 3 or caspase 7, for which a kit for the fluorometric detection of active caspase 3/7 (Apo-ONE® Homogeneous Caspase-3/7, Promega) was used. Active caspases 3 or 7 of the cells cause the rupture of a substrate, which leads to fluorescence emission, which is read by means of a fluorometer. The effect of the pretreatment of compound NST0060 at 10 and 40 μM on the activation of caspase 3/7 produced by 50 μM of camptothecin (CPT) in the SK-N-MC cells was thus analyzed. These cells, not exceeding 15 passages, were seeded on 96-well plates treated for adherent cells with a cell concentration of 5×10^4 cells/well; 3 wells of the plate were seeded for each assay condition.
After 24 hours of cell incubation (at 37° C. and 5% CO2), the pretreatment with NST0060 at 10 and 40 μM was performed.
The cells were incubated (at 37° C. and 5% CO2) with these treatments for 6 hours, after which cell lysis buffer and the caspase substrate at the concentrations specified by the manufacturer were added; it was incubated at room temperature for 30 minutes and then frozen at −20° C. overnight. Fluorescence was measured the next day (499/521 nm, Exci/Emi).

[1] = system: human hepatocarcinoma line HepG2; assay: Intracellular total cholesterol levels in human hepatic cell line; format: cell-based; conditions: HepG2, active form, 20 hours in the absence of FBS
Method: To that end an assay was conducted which had the purpose of determining if compound NST0060 in its active form was capable of modifying total cholesterol levels in the human hepatocarcinoma line HepG2. […] To carry out this assay, the compounds were prepared at 10 mM in ultrapure water and were activated by means of 0.1 N NaOH for 12 hours at 4° C. The compounds were stored at −20° C. until they were used.
The HepG2 line was obtained from the American Type Culture Collection (ATCC). The cells maintained in passage were seeded in 96-well plates (4×10^4 cells/well) in MEM supplemented with 10% FBS, 2 mM L-glutamine, 1 mM sodium pyruvate, 0.1 mM non-essential amino acids and 0.05 mg/mL gentamicin. After 24 hours of the seeding, the cells were deprived of FBS for 8 hours. The cells were then incubated with the treatments at various concentrations for 20 hours. After the incubation period, the cells were washed with PBS and lysed with a phosphate buffer with 0.5% Triton X-100. The lysis was completed by means of a double freezing-thawing.
The total cholesterol was quantified by means of enzymatic and fluorometric techniques. […] The fluorescence intensity was determined at 530 nm of excitation and 580 nm of emission by means of a fluorometer. The results were standardized by amount of protein, which was determined by means of the BCA technique.

TNFα = assay: LPS model of systemic shock in mice, plasma TNFα at 2 and 4 hours; format: in vivo; conditions: two i.p. doses of 50 mg/kg; 2 and 4 hours post-LPS
Method: (§1) To that end an additional assay was carried out in which all the animals included were 12-week old male C57BL6 mice. The experiments were carried out strictly complying with the standard entitled Guidance on the Operation of Animals (Scientific Procedures, Act. 1986). The animals were subjected to their respective quarantine period and were treated with maximum precaution to minimize possible contaminations during treatments and handling.
The mice were split up into three experimental groups: control group (n=8); control+LPS group (n=16); NST0060+LPS group (n=16). The mice were i.p. administered two doses of 50 mg/kg of NST0060 (in its lactone form) spaced out 12 hours from one another. 0.5% methyl cellulose in physiological saline, which was administered to the mice in the control groups with the same administration regimen, was used as a vehicle. Peripheral systemic inflammation was induced one hour after the last treatment by means of a single i.p. injection of LPS at 8 mg/kg. Half the mice in which systemic shock was induced (8 animals from the control+LPS group and 8 animals from the NST0060+LPS group) were sacrificed 2 hours after the inoculation of the LPS. Blood was taken and plasma was obtained, and both were frozen. […] The concentration of the inflammatory cytokines TNFα and IL-1β was evaluated in the plasma obtained by means of ELISA.

FVB/NHan mice = assay: Kainate (KA) model of epilepsy in mice, convulsions, status epilepticus, latency, Racine scale; format: in vivo
Method: as §1, with “All” for “To that end an additional assay was carried out in which all”, “included during the experimental process” for “included”, “males from the FVB/NHan strain.” for “male C57BL6 mice.”, “inoculations” for “treatments”
The animals were intraperitoneally inoculated with 25 mg/kg of kainate (KA) dissolved in PBS. Fourteen animals were pretreated at 24 and 0.5 hours before inoculation with KA by means of intraperitoneal injection with 0.25% methyl cellulose in PBS (vehicle+KA administration regimen), and 14 were pretreated at 24 and 0.5 hours before inoculation with KA by means of intraperitoneal injection with compound NST0060 at a dose of 50 mg/kg (NST0060+KA administration regimen). After inoculation, the animals were individually housed in trays to monitor them. The maximum level of epilepsy of the animals was recorded during the observation according to the Racine scale every ten minutes and for at least 120 minutes post-inoculation (m.p.i.).

With `CCCC(CCC)C(=O)O[C@H]1C[C@@H](C)C=C2C=C[C@H](C)[C@H](CC[C@@H]3C[C@@H](O)CC(=O)O3)[C@H]21` [NST0060, 2-propylpentanoic acid (1S,3R,7S,8S,8aR)-1,2,3,7,8,8a-hexahydro-3,7-dimethyl-8-[2-[(2R,4R)-tetrahydro-4-hydroxy-6-oxo-2H-pyran-2-yl]ethyl]-1-naphthalenyl ester] the inhibition at 10 µM (caspase 3/7; pretreatment 24 h at 10 μM) was 58%, the inhibition at 40 µM (caspase 3/7; pretreatment 24 h at 40 μM) was 32% and the “reduction in total cholesterol in the cells” value [1] was “reductions in total cholesterol in the cells similar to those exerted by simvastatin”. The “plasma concentration of TNFα (inflammatory response)” value (TNFα) was “decrease in the inflammatory response at both 2 and 4 hours post-LPS”, the “Status epilepticus, percentage of animals with tonic-clonic seizures lasting at least 30 minutes” value (FVB/NHan mice; 50 mg/kg i.p. at 24 and 0.5 hours before KA 25 mg/kg i.p., vehicle+KA 79%) was 29% and the “Convulsions, percentage of animals with tonic-clonic seizures” value (FVB/NHan mice; 50 mg/kg i.p. at 24 and 0.5 hours before KA 25 mg/kg i.p., vehicle+KA 93%) was 36%. For the same molecule, the “latency (time when the first convulsions occurred)” value (FVB/NHan mice; 50 mg/kg i.p. at 24 and 0.5 hours before KA 25 mg/kg, mean±SEM, vehicle+KA 45.7±7.5) was 100.1 ± 7.3 min and the “mean level of epilepsy on the Racine scale” value (FVB/NHan mice; 50 mg/kg i.p., two hours after KA, vehicle+KA above 4) was ≤ 3.
